Data from patent US20230127559A1, “PEPTIDE ANALOGS AND USE OF SAME IN TREATING DISEASES, DISORDERS OR CONDITIONS ASSOCIATED WITH MUTANT P53 PROTEIN” (YEDA RESEARCH AND DEVELOPMENT CO. LTD., priority 2020, published 2023).
Read-outs that look alike come from different tables or passages of the source. Where a SMILES comes first, the peptide text is derived from it. Bridges are numbered along the chain shown (N, C = ends). [ ]: non-standard residue; d: D form. The star is where a group is joined. Stearoyl = CCCCCCCCCCCCCCCCCC(=O)*; Myristoyl = CCCCCCCCCCCCCC(=O)*; Dab = NCC[C@H](N)C(=O)O; Dmp = di-methyl proline

Columns and labels:
[1] = system: MIA PaCa-2 (pancreatic carcinoma) cells, p53R248W; assay type: cell-based
Description: (§1) Cells were cultured in 96 wells plates with 2500-4000 cells/well. Serial dilutions of different peptides were added and the plates incubated for additional 48 h at 37° C. Then medium was removed and cell viability was determined by staining the cells with crystal violet (0.05%) in methanol/PBS (1:5, v/v), for 10 min, followed by 3 washes with PBS. 10% acetic acid was added to each well for 10 min. OD was determined at 595 nm.
(§2) The IC50 tables presented in FIGS. 17-20 are from several representative experiments performed on cell lines expressing several p53 hotspot mutations, as well as control non-transformed cells: […]

[2] = system: PANC1 (pancreatic carcinoma) cells, p53R273H; assay type: cell-based
Description: as §1, §2

[3] = system: WI38 (non-transformed fibroblasts) cells, wtp53; assay type: cell-based
Description: as §1, §2

[4] = system: panel of cell lines expressing mutp53; assay type: cell-based
Description: as §1
(§3) The IC50 tables presented in FIGS. 17-20 are from several representative experiments performed on cell lines expressing several p53 hotspot mutations, as well as control non-transformed cells:
Proline residue position—Based on alanine scanning and molecular dynamics analyses, it is believed that the proline residue at the 6th position from the N-terminal is critical for the peptide's 3D structure and provides some rigidity required for peptide binding and activity. Therefore, it was hypothesized that a change in orientation or tetrahedral angle might increase the affinity of the peptide for p53. Six new peptides were synthesized replacing this proline residue with proline analogs (pCAPs 708-712, and pCAP-716, SEQ ID NOS: 6-10 and 14, respectively). This set of peptides was tested for activity on a panel of cell lines expressing mutp53, and compared it to pCAP-674 (SEQ ID NO: 27) and to the scrambled sequence peptides pCAP-721 (SEQ ID NO: 19) and pCAP-722 (SEQ ID NO: 20).

[5] = Solubility at physiological pH; assay type: physicochemical
[6] = system: SW-480 (colon carcinoma) cells, p53R273H, P309S; assay type: cell-based
Description: as §1, §2

[7] = system: RXF-393 (renal carcinoma) cells, p53R175H; assay type: cell-based, human
Description: as §1, §3
Fatty acid position. Lead peptides were modified with N-terminal myristic acid to enable the penetration of peptides across the cell membrane. Although myristic acid is usually the default choice for cell permeability, additional options were explored of longer fatty acids and to examine the effect on peptide efficacy in terms of cancer cell killing. A standard crystal violet viability test was performed on human renal carcinoma RXF-393 cells, comparing the original pCAP-553, which has myristic acid (C14), with 4 derivative peptides modified with longer fatty acid chains: palmitic (C16), stearic (C18), […] (C20) and behenic (C22).

[8] = system: PC9 (lung carcinoma) cells, p53R248Q; assay type: cell-based
Description: as §1, §2

[9] = system: RXF-393 renal cell carcinoma (RCC) cell line, endogenously expressing p53R175H; experiment: RXF-393 luciferase xenograft model, tumor growth by IVIS; assay type: in vivo, athymic Nude-Foxn1nu mice; details: for tumor growth, average IVIS signal (in words): subcutaneous injections 20 mg/Kg, 2 days a week
From the text: To investigate the efficacy of the lead peptides in vivo, a representative cancer cell line-based xenograft model was employed. The selection of the in vivo model was based on the peptide/cell line combination that yielded the strongest effects in culture: human renal carcinoma RXF-393 cells. The peptide analog pCAP-724 (SEQ ID NO: 22), administered by subcutaneous injections and sustained subcutaneous release, was compared to the control scrambled peptide pCAP-722 (SEQ ID NO: 20). Tumor growth was monitored by luciferase activity, measured in an IVIS200® Spectrum system that combines 2D optical and 3D optical tomography in one platform. The system uses leading optical technology for preclinical imaging research and development, ideal for non-invasive longitudinal monitoring of disease progression in living animals
The RXF-393 renal cell carcinoma (RCC) cell line, endogenously expressing p53R175H, and stably expressing Luciferase was utilized. • 1. 0.75×10^6 cells in 50% HBSS 50% Cultrex (1000) were injected subcutaneously, into both hips of athymic Nude-Foxn1nu mice (6 weeks old). • 2. Tumor growth over time was measured by live imaging, using the […] system. Exposure time was calibrated to 20 sec and peak luminescence values were taken for each tumor. • 3. 21 and 24 days after injection of cells, when tumors reached visible size (50-100 mm^3) and an average IVIS signal of 10^7 (100-fold over threshold), the mice were randomly divided into several groups (5 or 6 mice per each group), according to the mode of administration and peptides: • Subcutaneous injections, performed 2 days a week for 3-4 weeks (20 mg/Kg). Two injections will be given for each day of treatment 16 h interval to allow effective level of peptide for 24 h. […]
• 4. Tumor growth over time was measured by live imaging, twice a week. The experiment was conducted until tumors reached the maximal allowed size of 1 cm^3, at which time mice were sacrificed, tumors extracted, measured, photographed, and weighed.

[10] = Pharmacokinetic profile, LC-MS of peptide concentration in plasma; assay type: in vivo, mice
Description: FIG. 21 depicts PK profile for pCAP-724 (SEQ ID NO:22). LC-MS analysis of peptide concentration in the plasma of injected mice. Each point represents an average reading from 3 mice. Shown are mean plasma concentrations (mpk) of the peptide, following administration either intravenously at 1 mg/kg (IV) or subcutaneously at 5 mg/kg (SC).
Each point represents the average from 3 mice. When administered subcutaneously into mice, pCAP-724 levels reach a maximal concentration after 2 h and a show a half-life (T1/2) of about 10 h. […] From the PK study, it is estimated that a continuous long-acting administration of 20 mg/kg/day of pCAP-724 (SEQ ID NO: 22) will yield a steady state concentration in the blood of about 7-10 μM.

Row | Compound | IC50 ([1]; 48 h) | IC50 ([2]; 48 h) | IC50 ([6]; 48 h) | IC50 ([3]; 48 h) | activity in viability assays compared with other peptides (in words) [4] | other results
1 | CCCCCCCCCCCCCC(=O)N[C@@H](CCCNC(=N)N)C(=O)N[C@@H](CCCNC(=N)N)C(=O)N[C@@H](Cc1c[nH]cn1)C(=O)N[C@@H](CO)C(=O)N[C@@H](C(=O)N1CCC[C@H]1C(=O)N[C@@H](CCN)C(=O)N1CCC[C@H]1C(=O)N[C@@H](CC(=O)O)C(=O)O)C(C)C [pCAP-553, myr-RRHSvP(L-Dab)PD] (Myristoyl-RRHS[dV]P[Dab]PD-OH; C-terminus assumed) | 1200 nM | 2100 nM | – | > 40000 nM | improved efficacy relatively to pCAP-250 | solubility (in words) [5]: better solubility at physiological pH
2 | CCCCCCCCCCCCCCCCCC(=O)N[C@@H](CC(=O)O)C(=O)N1CCC[C@H]1C(=O)N[C@@H](Cc1c[nH]cn1)C(=O)N[C@H]1CCCCNC(=O)[C@H](CCCNC(=N)N)NC(=O)[C@H](CCN)NC(=O)[C@H](CCCNC(=N)N)NC(=O)[C@@H]2CCCN2C(=O)[C@H](CO)NC1=O [pCAP-725, str-DPHKSPR(Dab)R-Cyc, reference compound] (Stearoyl-DPHKSPR[Dab]R; lactam 4-C) | > 30000 nM | > 40000 nM | > 30000 nM | > 40000 nM | – | –
3 | str-RRHSv(Dmp)(Dab)PD-NH2 (Stearoyl-RRHS[dV][Dmp][Dab]PD-NH2) [pCAP-716, Dmp—Di-methyl proline] | – | – | – | – | consistently modestly improved activity over pCAP-674 | IC50 ([7]; FIG. 19, read-out: RXF IC50): 420 nM; IC50 ([7]; FIG. 20, read-out: RXF 393 IC50): 300 nM; IC50 ([1]; FIG. 20, read-out: MIAPaca IC50): 300 nM; IC50 ([2]; FIG. 19, read-out: PANCI IC50): 2000 nM; IC50 ([8]; FIG. 19, read-out: PC9 IC50): 630 nM; IC50 ([8]; FIG. 20, read-out: PC9 IC50): 700 nM; IC50 ([6]; FIG. 20, read-out: SW-480 IC50): 1000 nM; IC50 ([3]; FIG. 19, read-out: WI38 IC50): 33000 nM; activity in viability assays compared with other peptides (in words) ([4]; listed as 716): highest activity

Further lines, with some results ahead:

Row | IC50 ([1]; 48 h) | IC50 ([2]; 48 h) | IC50 ([6]; 48 h) | Compound | IC50 ([3]; 48 h) | activity in viability assays compared with other peptides (in words) [4] | other results
4 | 300 nM | 2150 nM | 1200 nM | CCCCCCCCCCCCCCCCCC(=O)N[C@@H](CCCNC(=N)N)C(=O)N[C@@H](CCCNC(=N)N)C(=O)N[C@@H](Cc1c[nH]cn1)C(=O)N[C@@H](CO)C(=O)N[C@@H](C(=O)N1CCC[C@H]1C(=O)N[C@@H](CCN)C(=O)N1CCC[C@H]1C(=O)N[C@@H](CC(=O)O)C(N)=O)C(C)C [pCAP-717, str-RRHSvP(Dab)PD-NH2] (Stearoyl-RRHS[dV]P[Dab]PD-NH2) | 35000 nM | – | –
5 | 300 nM | 1240 nM | 1200 nM | CCCCCCCCCCCCCCCCCC(=O)N[C@@H](CCCNC(=N)N)C(=O)N[C@@H](CCCNC(=N)N)C(=O)N[C@@H](Cc1c[nH]cn1)C(=O)N[C@@H](CO)C(=O)N[C@@H](C(=O)N1CCC[C@@H]1C(=O)N[C@@H](CCN)C(=O)N1CCC[C@H]1C(=O)N[C@@H](CC(=O)O)C(=O)NCC(=O)N[C@@H](CCC(=O)O)C(=O)N[C@@H](C)C(=O)O)C(C)C [pCAP-720, str-RRHSvp(Dab)PDGEA] (Stearoyl-RRHS[dV][dP][Dab]PDGEA-OH; C-terminus assumed) | 32000 nM | comparable activity to pCAP-717 | –
6 | – | > 40000 nM | – | CCCCCCCCCCCCCCCCCC(=O)N[C@@H](CC(=O)O)C(=O)N1CCC[C@H]1C(=O)N[C@@H](Cc1c[nH]cn1)C(=O)N[C@@H](C(=O)N[C@@H](CO)C(=O)N1CCC[C@H]1C(=O)N[C@@H](CCCNC(=N)N)C(=O)N[C@@H](CCN)C(=O)N[C@@H](CCCNC(=N)N)C(N)=O)C(C)C [pCAP-722, str-DPHvSPR(Dab)R-NH2, reference compound] (Stearoyl-DPH[dV]SPR[Dab]R-NH2) | > 40000 nM | – | IC50 ([7]; 48 h): > 40000 nM; IC50 ([8]; 48 h): > 40000 nM; tumor growth, average IVIS signal (in words) [9]: continued its exponential growth
7 | 250 nM | 1020 nM | 650 nM | CCCCCCCCCCCCCCCCCC(=O)N[C@@H](CCCNC(=N)N)C(=O)N[C@@H](CCCNC(=N)N)C(=O)N[C@@H](Cc1c[nH]cn1)C(=O)N[C@@H](CO)C(=O)N[C@@H]1CCCCNC(=O)[C@H](CC(=O)O)NC(=O)[C@@H]2CCCN2C(=O)[C@H](CCN)NC(=O)[C@H]2CCCN2C1=O [pCAP-724, str-RRHSkp(Dab)PD-Cyc] (Stearoyl-RRHS[dK][dP][Dab]PD; lactam 5-C) | 32000 nM | modest increase in activity compared with pCAP-713 | IC50 ([4]; 48 h): 100 to 1000 nM; estimated steady state concentration in the blood ([10]; continuous long-acting administration of 20 mg/kg/day): 7 to 10 µM; half-life ([10]; mouse, in vivo, sc, 5 mg/kg, administered subcutaneously into mice, read-out: half-life (T1/2) (converted)): ~10 h; Tmax ([10]; mouse, plasma, sc, 5 mg/kg, administered subcutaneously into mice, read-out: time of maximal plasma concentration): 2 h; decrease in tumor signal (IVIS) ([9]; Alzet mini pumps 20 mg/Kg/Day SC continuous, within 14 days): 5 fold; tumor growth, average IVIS signal (in words) [9]: slowed down tumor growth for the first 10 days
